Patent US20230372498A1, “PLK1 SELECTIVE DEGRADATION INDUCING COMPOUND” (UPPTHERA, priority 2020, published 2023)

Biological target: T1, PLK1 (Homo sapiens, UniProt P53350)
T1 construct: endogenous in cells; host or cells: HeLa
Test: PLK1 protein degradation in HeLa cells, Western blotting (PLK1/GAPDH ratio)
Type: cell-based
Settings: for DC50 / Dmax: 6 hours compound incubation; for DC50: measured only if the grade of Dmax is A or B; for PLK1 protein degradability (western blot, FIG. 1 and 2): in comparison with Comparative Compounds; for Dmax: thymidine block and release, 10 points three-fold from 3 μM, PLK1 to GAPDH ratio, read-out: Dmax
Text: The HeLa cell line was purchased from Korea Cell Line Bank (KCLB), Seoul, Korea. The passage in cell culture was maintained at P115 to P125.
For cell culture, DMEM (Gibco, Cat. No. 1195-65; Lot. No. 2085318), FBS (Gibco, Cat. No. 16000-044; Lot. No. 2097593), Penicillin/Streptomycin (PS) (Gibco, Cat. No. 15140-122; Lot. No. 2058855), 100 mm^2 cell culture dish (SPL, Cat. No. 20100), 150 mm^2 cell culture dish (SPL, Cat. No. 20150), 12-well culture plate (SPL, Cat. No. 30012), PBS pH 7.4 (Gibco, Cat. No. 10010-023; Lot. No. 2085080), TrypLE™ Express (Gibco, Cat. No. 12605-010; Lot No. 2070638), Counting Chamber (Hematocytometer) (Hirschmann, Cat. No. 8100204), and 0.4% Trypan Blue Solution (DYNEBIO, Cat. No. CBT3710; Lot. No. 20190723) were used.
2×10^5 cells were seeded for each well of a 12-well plate (SPL), and the cells were cultured in the culture medium in a total volume of 2 ml.
The compounds of Examples were completely dissolved in DMSO and used in the experiment, and thymidine was completely dissolved in DW and used in the experiment. For thymidine block, the products were treated with 2 mM of thymidine (Sigma-Aldrich Cat. No. T9250-5G) and then incubated for 24 hours.
For release and chemical treatment, the medium was suctioned and washed 3 times with 1×PBS. Complete media was added, followed by incubation for 4 hours in a CO2 incubator. Each compound was diluted three folds from the highest concentration of 3 μM to the lowest concentration in 10 points and then incubated for 6 hours again.
For SDS-PAGE and Western blotting, 1×RIPA lysis buffer (Rockland, Cat. No. MB-030-0050; Lot no. 39751), 100× Protease Inhibitor Cocktail (Quartett, Cat. No. PPI1015; Lot no. PCO50038424), Pierce™ BCA protein assay kit (ThermoScientific, Cat. No. 23225; Lot no. UC276876), albumin standard (ThermoScientific, Cat. No. 23209; Lot no. UB269561), 4-15% Mini-PROTEAN TGX stain-free gel (Bio-rad, Cat. No. 4568085; Lot no. L007041B), 10× Tris/Glycine/SDS buffer (Bio-rad, Cat. No. 1610732; Lot no. 10000044375B); 10×TBS (Bio-rad, Cat. No. 1706435; Lot no. 1000045140B), 10% Tween 20 (Cat. No. 1610781; Lot no. L004152B), Color protein standard broad range (NEB, Cat. No. P7719S; Lot no. 10040349), 4× Laemmli sample buffer (Bio-rad, Cat. No. 1610747; Lot no. L004133B), β-mercaptoethanol (Sigma-Aldrich, Cat. No. M3148; Lot no. 60-24-2), SuperBlock™ T20 (TBS) blocking buffer (ThermoScientific, Cat. No. 37536; Lot no. UC282578), 1M sodium azide solution (Sigma-Aldrich, Cat. No. 08591-1 mL-F; Lot no. BCBV4989), α-Rabbit pAb to Ms IgG (abcam, Cat. No. ab97046; Lot no. GR3252115-1), α-Goat pAb to Rb IgG (CST, Cat. No. 7074S; Lot no. 28), α-GAPDH (abcam, Cat. No. ab8245; Lot no. GR3275542-2), α-Plk1 (CST, Cat. No. 208G4), α-BRD4 (CST, Cat. No. 13440S), ECL™ Prime western blotting reagents (GE Healthcare, Cat. No. RPN2232; Lot no. 17001655), Ponceau S solution (Sigma-Aldrich, Cat. No. P7170; Lot no. SLBV4112), Difco™ Skim milk (BD, Cat. No. 232100; Lot no. 8346795), and iBlot® 2 NC Regular stacks (Invitrogen, Cat. No. IB323001; Lot no. 2NR110619-02) were used.
For cell harvesting, the cells were first separated from the plate using trypsin and then washed with the medium and PBS. Specifically, the medium was suctioned off and washed with 1 mL of PBS, and PBS was suctioned off. The cells were treated with 0.5 mL TrypLE™ Express at 37° C. for 7 minutes to separate the cells, and then 0.5 mL of complete medium was added to collect 1 mL of cell culture solution. Then, 1 mL of the cell collection solution was centrifuged at 8,000 rpm for 120 seconds, and the supernatant was removed. After washing with 0.2 mL of PBS, the PBS was removed.
For cell lysis, a lysis buffer was added and cell debris was removed to obtain a cell lysate. Specifically, the cells were treated with 70 μL of 1×RIPA buffer containing a protease inhibitor and incubated for 30 minutes on ice. Then, the cells were centrifuged at 4° C. and 15,000 rpm for 10 minutes to obtain a cell lysate. […]

T1 sequence (P53350 whole entry): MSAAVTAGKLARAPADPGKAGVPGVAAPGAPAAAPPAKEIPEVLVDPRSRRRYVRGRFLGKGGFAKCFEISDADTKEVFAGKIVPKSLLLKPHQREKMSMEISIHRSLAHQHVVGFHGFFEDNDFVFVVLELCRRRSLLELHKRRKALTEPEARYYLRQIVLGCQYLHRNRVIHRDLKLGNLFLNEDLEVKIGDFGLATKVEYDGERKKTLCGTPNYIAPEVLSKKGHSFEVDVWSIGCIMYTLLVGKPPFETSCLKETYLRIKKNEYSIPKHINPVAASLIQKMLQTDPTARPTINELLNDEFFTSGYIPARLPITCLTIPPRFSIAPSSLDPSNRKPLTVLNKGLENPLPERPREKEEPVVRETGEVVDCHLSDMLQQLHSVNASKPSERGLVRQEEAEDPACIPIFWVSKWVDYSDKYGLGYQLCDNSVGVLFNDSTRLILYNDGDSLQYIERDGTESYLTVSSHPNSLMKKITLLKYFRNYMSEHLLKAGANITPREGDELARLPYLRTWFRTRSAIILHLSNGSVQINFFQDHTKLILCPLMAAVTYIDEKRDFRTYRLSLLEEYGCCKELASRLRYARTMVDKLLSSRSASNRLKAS

| SMILES | DC50 | PLK1 protein degradability (western blot, FIG. 1 and 2) | Dmax |
| --- | --- | --- | --- |
| COc1cc(C(=O)NC2CCN(CCOCCNc3cccc4c3C(=O)N(C3CCC(=O)NC3=O)C4=O)CC2)c(F)cc1Nc1ncc2c(n1)N(C1CCCC1)CC(F)(F)C(=O)N2C (stereo not shown) [Compound 1, 4-((9-cyclopentyl-7,7-difluoro-5-methyl-6-oxo-6,7,8,9-tetrahydro-5H-pyrimido[4,5-b][1,4]diazepin-2-yl)amino)-N-(1-(2-(2-((2-(2,6-dioxopiperidin-3-yl)-1,3-dioxoisoindolin-4-yl)amino)ethoxy)ethyl)piperidin-4-yl)-2-fluoro-5-methoxybenzamide] | ≤ 50 nM | excellent PLK1 protein degradability | ≥ 80% |
| COc1cc(C(=O)NC2CCN(CCOCCOCCOCCOCCNc3cccc4c3C(=O)N(C3CCC(=O)NC3=O)C4=O)CC2)c(F)cc1Nc1ncc2c(n1)N(C1CCCC1)CC(F)(F)C(=O)N2C (stereo not shown) [Compound 4, 4-((9-cyclopentyl-7,7-difluoro-5-methyl-6-oxo-6,7,8,9-tetrahydro-5H-pyrimido[4,5-b][1,4]diazepin-2-yl)amino)-N-(1-(14-((2-(2,6-dioxopiperidin-3-yl)-1,3-dioxoisoindolin-4-yl)amino)-3,6,9,12-tetraoxatetradecyl)piperidin-4-yl)-2-fluoro-5-methoxybenzamide] | ≤ 50 nM | – | ≥ 80% |
| COc1cc(C(=O)NC2CCN(CCOCCOCCOCCOCCNc3cccc4c3C(=O)N(C3CCC(=O)N(C)C3=O)C4=O)CC2)c(F)cc1Nc1ncc2c(n1)N(C1CCCC1)CC(F)(F)C(=O)N2C (stereo not shown) [Compound 7, 4-((9-cyclopentyl-7,7-difluoro-5-methyl-6-oxo-6,7,8,9-tetrahydro-5H-pyrimido[4,5-b][1,4]diazepin-2-yl)amino)-2-fluoro-5-methoxy-N-(1-(14-((2-(1-methyl-2,6-dioxopiperidin-3-yl)-1,3-dioxoisoindolin-4-yl)amino)-3,6,9,12-tetraoxatetradecyl)piperidin-4-yl)benzamide] | – | – | < 60% |
| COc1cc(C(=O)NC2CCN(CCCCNc3cccc4c3C(=O)N(C3CCC(=O)NC3=O)C4=O)CC2)c(F)cc1Nc1ncc2c(n1)N(C1CCCC1)CC(F)(F)C(=O)N2C (stereo not shown) [Compound 8, 4-((9-cyclopentyl-7,7-difluoro-5-methyl-6-oxo-6,7,8,9-tetrahydro-5H-pyrimido[4,5-b][1,4]diazepin-2-yl)amino)-N-(1-(4-((2-(2,6-dioxopiperidin-3-yl)-1,3-dioxoisoindolin-4-yl)amino)butyl)piperidin-4-yl)-2-fluoro-5-methoxybenzamide] | – | – | < 60% |
| COc1cc(C(=O)NC2CCN(CCCCCNc3cccc4c3C(=O)N(C3CCC(=O)NC3=O)C4=O)CC2)c(F)cc1Nc1ncc2c(n1)N(C1CCCC1)CC(F)(F)C(=O)N2C (stereo not shown) [Compound 9, 4-((9-cyclopentyl-7,7-difluoro-5-methyl-6-oxo-6,7,8,9-tetrahydro-5H-pyrimido[4,5-b][1,4]diazepin-2-yl)amino)-N-(1-(5-((2-(2,6-dioxopiperidin-3-yl)-1,3-dioxoisoindolin-4-yl)amino)pentyl)piperidin-4-yl)-2-fluoro-5-methoxybenzamide] | ≤ 500 nM | – | 60 to 80% |

Further lines, results first:

| DC50 | PLK1 protein degradability (western blot, FIG. 1 and 2) | Dmax | SMILES |
| --- | --- | --- | --- |
| ≤ 50 nM | excellent PLK1 protein degradability | ≥ 80% | COc1cc(C(=O)NC2CCN(CCOCCOCCNc3cccc4c3C(=O)N(C3CCC(=O)NC3=O)C4=O)CC2)c(F)cc1Nc1ncc2c(n1)N(C1CCCC1)CC(F)(F)C(=O)N2C (stereo not shown) [Compound 2, 4-((9-cyclopentyl-7,7-difluoro-5-methyl-6-oxo-6,7,8,9-tetrahydro-5H-pyrimido[4,5-b][1,4]diazepin-2-yl)amino)-N-(1-(2-(2-(2-((2-(2,6-dioxopiperidin-3-yl)-1,3-dioxoisoindolin-4-yl)amino)ethoxy)ethoxy)ethyl)piperidin-4-yl)-2-fluoro-5-methoxybenzamide] |
| ≤ 50 nM | – | ≥ 80% | COc1cc(C(=O)NC2CCN(CCOCCOCCOCCNc3cccc4c3C(=O)N(C3CCC(=O)NC3=O)C4=O)CC2)c(F)cc1Nc1ncc2c(n1)N(C1CCCC1)CC(F)(F)C(=O)N2C (stereo not shown) [Compound 3, 4-((9-cyclopentyl-7,7-difluoro-5-methyl-6-oxo-6,7,8,9-tetrahydro-5H-pyrimido[4,5-b][1,4]diazepin-2-yl)amino)-N-(1-(2-(2-(2-(2-((2-(2,6-dioxopiperidin-3-yl)-1,3-dioxoisoindolin-4-yl)amino)ethoxy)ethoxy)ethoxy)ethyl)piperidin-4-yl)-2-fluoro-5-methoxybenzamide] |
| ≤ 50 nM | – | ≥ 80% | COc1cc(C(=O)NC2CCN(CCOCCOCCOCCOCCOCCNc3cccc4c3C(=O)N(C3CCC(=O)NC3=O)C4=O)CC2)c(F)cc1Nc1ncc2c(n1)N(C1CCCC1)CC(F)(F)C(=O)N2C (stereo not shown) [Compound 5, 4-((9-cyclopentyl-7,7-difluoro-5-methyl-6-oxo-6,7,8,9-tetrahydro-5H-pyrimido[4,5-b][1,4]diazepin-2-yl)amino)-N-(1-(17-((2-(2,6-dioxopiperidin-3-yl)-1,3-dioxoisoindolin-4-yl)amino)-3,6,9,12,15-pentaoxaheptadecyl)piperidin-4-yl)-2-fluoro-5-methoxybenzamide] |
| – | – | < 60% | COc1cc(C(=O)NC2CCN(CCOCCOCCNc3cccc4c3C(=O)N(C3CCC(=O)N(C)C3=O)C4=O)CC2)c(F)cc1Nc1ncc2c(n1)N(C1CCCC1)CC(F)(F)C(=O)N2C (stereo not shown) [Compound 6, 4-((9-cyclopentyl-7,7-difluoro-5-methyl-6-oxo-6,7,8,9-tetrahydro-5H-pyrimido[4,5-b][1,4]diazepin-2-yl)amino)-2-fluoro-5-methoxy-N-(1-(2-(2-(2-((2-(1-methyl-2,6-dioxopiperidin-3-yl)-1,3-dioxoisoindolin-4-yl)amino)ethoxy)ethoxy)ethyl)piperidin-4-yl)benzamide] |
| ≤ 500 nM | – | 60 to 80% | COc1cc(C(=O)NC2CCN(CCCCCCNc3cccc4c3C(=O)N(C3CCC(=O)NC3=O)C4=O)CC2)c(F)cc1Nc1ncc2c(n1)N(C1CCCC1)CC(F)(F)C(=O)N2C (stereo not shown) [Compound 10, 4-((9-cyclopentyl-7,7-difluoro-5-methyl-6-oxo-6,7,8,9-tetrahydro-5H-pyrimido[4,5-b][1,4]diazepin-2-yl)amino)-N-(1-(6-((2-(2,6-dioxopiperidin-3-yl)-1,3-dioxoisoindolin-4-yl)amino)hexyl)piperidin-4-yl)-2-fluoro-5-methoxybenzamide] |
